Reference: the NIST ThermoML archive (doi:10.1021/acs.jced.8b00814)
Numbers after ± are expanded uncertainties.

Conditions: 101.33 kPa, Liquid, Vibrating tube method

O [water]
Conditions	mass density [kg/m3]
283.15 K	999.66 ± 1.9
308.15 K	994.11 ± 1.9
313.15 K	992.32 ± 1.9
318.15 K	990.34 ± 1.9
323.15 K	988.18 ± 1.9
328.15 K	985.87 ± 1.9
333.15 K	983.4 ± 1.9
338.15 K	980.78 ± 1.9
343.15 K	978.02 ± 1.9
348.15 K	975.13 ± 1.9
353.15 K	972.11 ± 1.9
358.15 K	968.95 ± 1.9
363.15 K	965.71 ± 1.9
